# Laboratory results taken from publication PMC11784839, “Monoaminergic neurotransmitters are bimodal effectors of tau aggregation” (Science Advances, 2025).
# Target: tau (Homo sapiens, UniProt P10636)
# Assay: MCE Phenols Library screening, tau biosensor cell seeding assay (AvZ)
# Type: cell-based
# Conditions: for Z repl 1 / Z Repl 2: Z score; for Z repl 1 / raw data 1: replicate 1; for Z Repl 2 / raw data 2: replicate 2; for AvZ (average z score of seeding, SDs from the mean level of seeding): 10 μM phenol in cell cultures, AD brain homogenate preincubated 16 hours, two biological replicates, positive = catalyzes seeding, negative = inhibits
# [1] = average Z score of the two replicates, MCE Phenols Library screen
# [2] = average puncta of the two replicates
# [3] = average Z score of two replicates, Phenols Library screen
# tau, sequence (P10636 623-695 limits assumed): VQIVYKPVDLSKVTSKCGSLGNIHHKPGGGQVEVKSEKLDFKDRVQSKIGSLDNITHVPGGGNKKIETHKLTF
Structure (SMILES),Z repl 1,Z Repl 2,av Z [1],av puncta [2],raw data 1 (raw puncta),raw data 2 (raw puncta),av puncta (average of raw data 1 and 2),raw data 1 (puncta),raw data 2 (puncta),"av Z (average Z score of the two replicates, tau biosensor seeding, MCE Phenols Library screen)","av Z (average Z score of the two replicates, tau seeding)",av Z [3],"AvZ (average z score of seeding, SDs from the mean level of seeding)","AvZ (average z score of seeding, SDs from the mean level of seeding) (listed as sinapine)"
COc1cc2c(c(O)c1OC)-c1c(cc(OC)c(OC)c1OC)C[C@@H](C)[C@@H](C)C2 [Schisanhenol],-0.397,-0.108,-0.253,16597.3,21578.6,11616.1,–,–,–,–,–,–,–,–
O=c1cc(-c2ccc(O)cc2)oc2cc(O)c(O)c(O)c12 [Scutellarein],-0.619,-1.142,-0.88,–,–,–,9747.69,18922.2,573.179,–,–,–,–,–
O=C(O)[C@H]1O[C@@H](Oc2cc3oc(-c4ccc(O)cc4)cc(=O)c3c(O)c2O)[C@H](O)[C@@H](O)[C@@H]1O [Scutellarin],-1.927,-0.903,-1.415,–,–,–,3169.77,3217.73,3121.8,–,–,–,–,–
COc1cc(C[C@@H](CO)[C@H](CO)Cc2ccc(O)c(OC)c2)ccc1O [Secoisolariciresinol],1.372,0.426,–,–,–,–,30068,42819.5,17316.5,0.899,–,–,–,–
O=C(O)c1cc(O)c2c(c1)[C@H]([C@H]1c3cccc(O)c3C(=O)c3c(O)cc(C(=O)O)cc31)c1cccc(O)c1C2=O [Sennidin B],0.553,-0.073,–,–,–,–,22482.9,32984.9,11981,–,0.24,–,–,–
O=C(O)c1cc(O)c2c(c1)[C@H]([C@H]1c3cc(C(=O)O)cc(O)c3C(=O)c3c(O[C@@H]4O[C@H](CO)[C@@H](O)[C@H](O)[C@H]4O)cccc31)c1cccc(O[C@@H]3O[C@H](CO)[C@@H](O)[C@H](O)[C@H]3O)c1C2=O [Sennoside A],-1.043,-0.801,-0.922,–,–,–,9021.29,13826.4,4216.17,–,–,–,–,–
Oc1ccc2c(c1)OCO2 [Sesamol],-0.018,-1.03,-0.524,13948.1,–,–,–,26133.2,1763.04,–,–,–,–,–
COc1cc(/C=C/C(=O)O[C@H]2[C@H](O)[C@@H](CO)O[C@@]2(CO)O[C@H]2O[C@H](CO)[C@@H](O)[C@H](O)[C@H]2O)ccc1O [Sibiricose A5],-0.765,-0.196,-0.481,13916.2,–,–,–,17163.5,10668.8,–,–,–,–,–
COc1cc([C@@H]2Oc3c(O)cc([C@H]4Oc5cc(O)cc(O)c5C(=O)[C@@H]4O)cc3[C@H]2CO)ccc1O [Silychristin],0.429,-0.406,–,–,–,–,19966.5,31503,8429.95,–,–,0.012,–,–
COc1cc(/C=C/C=O)cc(OC)c1O [Sinapaldehyde],0.021,0.172,–,–,–,–,20601.9,26603.6,14600.1,–,–,–,0.096,–
COc1cc(/C=C/C(=O)OCC[N+](C)(C)C)cc(OC)c1O.N#C[S-] [Sinapine (thiocyanate)],0.104,-0.095,–,–,–,–,19676.8,27602.3,11751.4,–,–,–,0.005,–
COc1cc(/C=C/C(=O)OCC[N+](C)(C)C)cc(OC)c1O [Sinapine],-0.962,-0.305,–,12156.4,–,–,–,14803.5,9509.32,–,–,–,-0.633,−0.633
COC1=C[C@@H]2[C@@H]3Cc4ccc(OC)c(O)c4[C@]2(CCN3C)CC1=O.Cl [Sinomenine hydrochloride],-0.595,0.066,-0.264,16340.1,19209.2,13470.9,–,–,–,–,–,–,–,–
C=C(C)[C@H](CC=C(C)C)Cc1c(O)cc(O)c2c1O[C@H](c1ccc(O)cc1O)CC2=O [Sophoraflavanone G],-0.704,-0.412,-0.558,13130.1,–,–,–,17897.8,8362.49,–,–,–,–,–
O=c1c(O)c(-c2ccc(O[C@@H]3O[C@H](CO)[C@@H](O)[C@H](O)[C@H]3O)c(O)c2)oc2cc(O)cc(O)c12 [Spiraeoside],-1.012,-0.12,-0.566,12842,–,–,–,14202.4,11481.5,–,–,–,–,–
COc1cc(O)c2c(=O)c3c(O[C@@H]4O[C@H](CO)[C@@H](O)[C@H](O)[C@H]4O)ccc(O)c3oc2c1 [Swertianolin],-0.114,0.052,–,–,–,–,19147.5,24974.7,13320.3,–,–,-0.031,–,–
COc1cc(C=O)cc(OC)c1O [Syringaldehyde],0.142,-0.778,–,16255.1,28055.2,4454.92,–,–,–,–,–,–,-0.318,–
COc1cc(C(=O)O)cc(OC)c1O [Syringic acid],0.138,0.027,–,–,–,–,20525.8,28000.6,13051.1,–,–,–,0.082,–
COc1ccc(-c2oc3cc(O)cc(O)c3c(=O)c2O)cc1O [Tamarixetin],-0.357,-0.633,-0.495,14033.4,–,–,–,22060,6006.83,–,–,–,–,–
O=C(OC[C@H]1O[C@@H](OC(=O)c2cc(O)c(O)c(OC(=O)c3cc(O)c(O)c(O)c3)c2)[C@H](OC(=O)c2cc(O)c(O)c(OC(=O)c3cc(O)c(O)c(O)c3)c2)[C@@H](OC(=O)c2cc(O)c(O)c(OC(=O)c3cc(O)c(O)c(O)c3)c2)[C@@H]1OC(=O)c1cc(O)c(O)c(OC(=O)c2cc(O)c(O)c(O)c2)c1)c1cc(O)c(O)c(OC(=O)c2cc(O)c(O)c(O)c2)c1 [Tannic acid],-2.109,-1.136,-1.623,–,–,–,829.805,1030.3,629.309,–,–,–,–,–
COc1cc(O)c2c(=O)cc(-c3ccccc3)oc2c1 [Tectochrysin],0.481,-0.371,–,–,–,–,20458.8,32119.1,8798.38,–,–,0.055,–,–
COc1c(O)cc2occ(-c3ccc(O)cc3)c(=O)c2c1O [Tectorigenin],-0.071,-0.055,–,–,–,–,18839.4,25501.8,12177,–,–,-0.063,–,–
COc1cc(/C=C/C(=O)O[C@H]2[C@H](O)[C@@H](CO)O[C@@]2(CO)O[C@H]2O[C@H](COC(=O)c3ccc(O)cc3)[C@@H](O)[C@H](O)[C@H]2O)cc(OC)c1O [Tenuifoliside B],-0.53,-0.01,-0.27,16324,19990.7,12657.2,–,–,–,–,–,–,–,–
O=C(O)Cc1cc(I)c(Oc2cc(I)c(O)c(I)c2)c(I)c1 [Tetrac],0.158,-0.425,–,–,–,–,18236.7,28241.9,8231.59,–,–,-0.133,–,–
